Structures can show the parent of a compound that is named as a salt.
Experiments:
[1] = tested on: arachidonic acid-induced ear swelling; assay: topical arachidonic acid-induced ear swelling model in mice; type: in vivo; settings: male ICR mice, topical application 30 min before and 15 min after arachidonic acid; measured at 60 minutes; test compounds 375 mM, indomethacin 14 mM; n=10
Description: The test compounds, indomethacin (positive control), and vehicle were evaluated for anti-inflammatory activity in a topical arachidonic acid-induced ear swelling model in mice. Male ICR mice weighing 22±2 g were used and randomly divided; each group had 10 mice. Arachidonic Acid (0.5 mg in 20 μl of acetone:ethanol/1:1) was applied topically to the anterior and posterior surfaces of the right ear of each mice. Test substances and vehicle, as listed in Table 1 were similarly applied 30 min before and 15 min after arachidonic acid application. The thickness of the right ear and the left ear was measured and the difference calculated as an indication of the inflammation in the right ear. Ear swelling was measured by a Dyer model micrometer gauge at 60 and 90 minutes after arachidonic acid application as an index of inflammation. Percent inhibition was calculated according to the formula: Ic−It/Ic×100, where Ic and It refers to increase of ear thickness (mm) in control and treated mice, respectively. ANOVA and Dunnett's test were employed to ascertain significant difference between vehicle control and treated groups. Significance is set at P<0.05 level.

CS(=O)(=O)CCC(N)=O [3-(methylsulfonyl)propionamide]
% Inhibition of ear swelling [1]: 30%

COc1ccc2c(c1)c(CC(=O)O)c(C)n2C(=O)c1ccc(Cl)cc1 [Indomethacin, indomethacin, reference compound]
% Inhibition of ear swelling [1]: 54%

CS(=O)(=O)CCCN [3-(methylsulfonyl)propylamine]
% Inhibition of ear swelling [1]: 42%

CS(=O)(=O)CCCN (as salt: hydrochloride) [3-(methylsulfonyl)propylamine]
melting point: 146.9 to 147.4 °C
